Results from patent publication US20250295638A1, “METHODS OF TREATING ALLOGRAFT REJECTION” (Bargent Therapeutics Pty Ltd, priority 2022, published 2025).

Tests used:
[1] = system: heparanase (HPSE) expression in kidney transplant lymphoid cells; assay: Heparanase expression (ddPCR, fractional abundance of cDNA) in lymphoid cells from kidney transplants; type: in vivo, rat; conditions: Cast 150 mg/kg minus Non-Treated; day 6 after transplantation
Description: RNA was manually extracted using the RNeasy Plus Mini Kit as per the manufacturer's instructions (Qiagen, Hilden, Germany). […] The quality of the RNA was measured using the Nanodrop 2000 (ThermoFisher Scientific, MA, USA) and quantified using the Qubit 2.0 Fluorometer (Invitrogen, MA, USA), RNA was stored at −800 C. […]

[2] = system: heparanase (HPSE) expression in peripheral blood lymphoid cells; assay: Heparanase expression (ddPCR, fractional abundance of cDNA) in peripheral blood lymphoid cells of kidney transplanted rats; type: in vivo, rat; conditions: day 6 after transplantation
Description: (§1) Left orthotopic renal transplants were performed with a mean anastomosis time of 37±4 minutes using a standard technique (11), which would be well known to the skilled person. The procured kidney was perfused with 2 ml Custodial HTK solution (Chemie GMBH, Alsbach-Hähnlein, Germany) at […]. Transplanted rats were given analgesia (Carprofen 5 mg/kg every 12-24 hours subcutaneously) and a prophylactic antibiotic (Enrofloxacin 5 mg/kg SC 12 hourly) for 3 days. The transplanted kidney and blood were procured on day 6 immediately after euthanasia by CO2 asphyxiation. The kidney and blood were used for measurements of gene expression in intragraft lymphoid cells and peripheral blood mononuclear cells.
(§2) Studies about gene expression of heparanase were performed on lymphoid cells from transplanted kidney tissue and peripheral blood on day 6 after transplantation. This time frame encompassed the period of maximum rejection at day 6.
Castanospermine was administered by Alzet osmotic pumps (Alza Corporation, Palo Alto, United States) at an immunosuppressive dose of 150 mg/kg per day. […]
RNA was manually extracted using the RNeasy Plus Mini Kit as per the manufacturer's instructions (Qiagen, Hilden, Germany). […] The quality of the RNA was measured using the Nanodrop 2000 (ThermoFisher Scientific, MA, USA) and quantified using the Qubit 2.0 Fluorometer (Invitrogen, MA, USA), RNA was stored at […]. […]
Custom ddPCR assays were designed using the IDT PrimerQuest™ Tool, Prime Time qPCR assay (IDT, Singapore). […] A 25 ul reaction containing, ddPCR SuperMix for Probes (No dUTP) (Bio-Rad, Hercules, CA, USA), a hypoxanthine-guanine phosphoribosyl transferase reference control (HPRT-1) and heparanase target probes (HPSE) (IDT, Singapore). cDNA and water were created for each sample and added to a 96 well plate ready for ddPCR droplet generation. […]
The samples were left on the cycler for a minimum of 4 hours at 4° C. The droplets were then read on the QX200 Droplet Reader and analysed using QuantaSoft Software (Bio-Rad, Hercules, CA, USA). […]

[3] = system: heparan sulphate in the renal allotransplant; assay: H-scores for heparan sulphate in the renal allotransplant by digital image pathology; type: in vivo, rat; conditions: for H-score for heparan sulphate, estimate of difference: day 6 after transplantation
Description: as §1
(§3) Groups used in this study are set out in Tables 6 and 7. Comparisons were made between an isograft control treatment group (i.e., a control for ischaemia reperfusion injury), a non-treated allograft group, and Castanospermine-treated allograft group. A primary comparison was made between the non-treated group versus the Castanospermine-treated group. […]
Whole slide digital images were acquired using an Aperio AT2 (Leica Biosystems, Wetzlar, Germany) at 20× magnification before analysis using the HALO v2.0 software (Indica laboratory, Corrales, New Mexico, USA). After selecting tissue areas, the percentage of total pixels with weak, moderate and strong staining intensity was measured using the ‘Area Quantification V1.0’ algorithm. Histology-score quantitation was calculated for each slide as H-score=(1×weak %)+(2×moderate %)+(3×strong %) providing a range from 0 to 300 (30). 4-6 sections per sample were scored at different levels through the tissue to obtain an average. […]
Three treatment Groups were studied at day 6 after transplantation. […] H Score quantitation is calculated for each slide as H-score=(1×weak %)+(2×moderate %)+(3×strong %) giving a score ranging from 0 to 300. There were 4-6 slides per kidney sample from one rat scored (each taken at different levels through the tissue) to obtain an average for that rat. […]

serum heparan sulphate = assay: ELISA assay for serum heparan sulphate after renal allotransplantation; type: in vivo, rat; conditions: combined days 2, 4, 6
Description: as §1, §3
Serum samples, separated from whole blood were aliquoted and stored at −80° C. […] Absorbance was immediately measured at 450 nm on a Versa Max Microplate Reader (Molecular Devices, Sunnyvale, California, USA) and the results calculated in ng/ml according to the internal standard curve. […]

[4] = system: heart allograft (PVG donor, DA recipient); assay: Rat heterotopic cardiac transplantation: heart allograft survival; type: in vivo; conditions: for heart allograft survival times, mean / heart allograft survival times, median: PVG-DA allograft
Description: Inbred rat strains PVG (RT1c) (donor) and DA (RT1a) (recipient) used for heart and renal transplantation were housed under standard conditions. All procedures were approved and audited by an Animal Care and Ethics Committee in Australia.
Heterotopic cardiac transplants were done using a standard technique (10). Cardiac function was assessed daily by abdominal palpation. The end point of cardiac transplant survival was defined as the last day of palpable heart beating. Care of all rats in this study complied with the Animal Research Act 1985 (NSW, Australia). The protocols were designed to minimise pain and discomfort to the animals. Animals were acclimatised to laboratory conditions (22° C., 12 h cycle of light and dark, 50% humidity, ad libitum access to food and water) for a minimum of 1 wk. prior to experimentation. Intragastric gavage administration was carried out with conscious animals, using curved gavage needles appropriate for animal size (250-300 gm body weight: Gauge 16, 100 mm). All transplanted rats were given post-operative analgesia (Carprofen 4 mg/kg every 12-24 h subcutaneously). They were euthanized by approved carbon dioxide asphyxiation when the heart stopped beating prior to tissue procurement.
as §2
Castanospermine was administered by Alzet osmotic pumps (Alza Corporation, Palo Alto, United States) at an immunosuppressive dose of 150 mg/kg per day. OGT 2115 treatment started on the first post operative day and the Castanospermine treatment started on the day of the transplant.
An experiment was conducted comparing heart allograft survival in 6 groups of inbred rats.
These tests were assessed using the Wilcoxon rank sum test procedure. The mean, median, min, max and the first and third quartiles are presented for each group, as well as the estimated difference in location parameters with 95% confidence intervals. The difference in location parameters is the median of the difference between a sample from the first group and a sample from the second group.

[5] = system: ischaemia reperfusion injury; conditions: reference (2); cited from earlier work
[6] = system: pancreatic islet allografts; conditions: no IRI control, cited from earlier work
[7] = Castanospermine (150 mg/kg per day) v Isograft
[8] = Non-treated v Castanospermine (150 mg/kg per day)
[9] = Group 4: OGT 2115 2.5 mg/kg subcutaneously
[10] = Group 5: OGT 2115 5 mg/kg subcutaneously
[11] = Group 6: 10 mg/Kg, Wilcoxon difference in location
[12] = Group 6: OGT 2115 10 mg/kg subcutaneously

Compound: O[C@H]1[C@H](O)[C@@H](O)CN2CC[C@H](O)[C@H]12 [Castanospermine]
- Estimated mean difference in heparanase levels (percent heparanase cDNA), kidney samples [1]: −31.0%
- Estimated mean difference in heparanase levels (percent heparanase cDNA), peripheral blood samples ([2]; Cast 150 mg/kg minus Non-Treated): 22.1%
- H-score for heparan sulphate, estimate of difference [3, 7]: −3.08
- H-score for heparan sulphate, estimate of difference [3, 8]: 34.78
- breakdown of HSPG (in words) ([3]; in both the allotransplant and the serum from allotransplanted rats, 150 mg/kg per day): effectively stops the breakdown of HSPG
- serum heparan sulphate levels, ratio of estimate of difference (serum heparan sulphate; [7]): 1.05
- serum heparan sulphate levels, ratio of estimate of difference (serum heparan sulphate; [8]): 1.72

Compound: O=C(O)Cc1ccc2oc(-c3ccc(NC(=O)/C=C/c4ccc(Br)cc4)c(F)c3)nc2c1 [OGT 2115]
- survival of the heart allotransplant grafts (in words) ([4]; 2.5, 5 and 10 mg/Kg, Table 2 and FIG. 1): prolonged the survival
- heart allograft survival times, mean [4, 9]: 7.40 days
- heart allograft survival times, median [4, 9]: 8 days
- heart allograft survival times, mean [4, 10]: 7.33 days
- heart allograft survival times, median [4, 10]: 7 days
- estimated increase in survival compared to DMSO [4, 11]: 3 days
- estimated increase in survival compared to Non-treated PVG-DA [4, 11]: 2 days
- heart allograft survival times, mean [4, 12]: 9.18 days
- heart allograft survival times, median [4, 12]: 9 days
- Estimated mean difference in heparanase levels (percent heparanase cDNA), peripheral blood samples ([2]; OGT 2115 10 mg/kg minus Isograft): 17.0%
- Estimated mean difference in heparanase levels (percent heparanase cDNA), peripheral blood samples ([2]; OGT 2115 10 mg/kg minus Non-Treated): 35.9%

Compound: Roneparstat
- ischaemia reperfusion injury (in words) [5]: curtail ischaemia reperfusion injury

Compound: PI 88
- rejection of islet allografts (in words) ([6]; WO 2008/046162, example 8 and FIG. 10): curtails rejection of islet allografts
- survivals of pancreatic islet allografts (in words) ([6]; WO 2011/109877, Example 7 and FIG. 15): prolonged
